According to patent US12589090B2, “Compounds and methods for the treatment of degenerative disorders” (Aquilus Pharmaceuticals, Inc., priority 2019, dated 2026):
Entries after “also recorded” stand apart in the source; their conditions may differ.

Legend:
SNL rats = experiment: Spinal nerve ligation (SNL) rat model, mechanical allodynia by von Frey paw withdrawal threshold (Example 17); assay type: in vivo, Sprague Dawley rats; conditions: 160 mg/Kg PO once per day for 5 days, 60 min after dosing, vs. vehicle control, p<0.05
Method: A total of 90 male Sprague Dawley rats (200-225 g) from Envigo (Indianapolis, IN) were used in the study. The 90 rats were assembled into four groups that would be orally dosed (PO) with vehicle, Gabapentin and Compound 118 as follows: • Group 1=Sham+Vehicle, n=20 rats • Group 2=SNL+Vehicle, n=40 rats • Group 3=SNL+Compound 118 (160 mg/Kg), n=20 rats • Group 4=SNL+Gabapentin (100 mg/Kg), n=10 rats
Under general anesthesia with continuous inhalation of isoflurane, surgery was performed with aseptic procedures. The skin at the area of the lower lumber and sacral level of the rat was shaved and disinfected with betadine and alcohol. A left longitudinal incision at the level next to the vertebral column was made and the left paraspinal muscles were separated. The transverse process of L6 was removed and nearby connective tissue cleaned to expose L5 and L6 spinal nerves. After the nerves were isolated and clearly visualized, 4-0 silk threads were used to ligate the left L5. The muscles were sutured with 4-0 silk threads and the wound closed by staples. […] Each rat was monitored until awake and moving freely around the recovery chamber. […]
The mechanical allodynia of the rodents were measured by applying von Frey (VF) filaments (Stoelting, Wood Dale, IL) of ascending bending force to the plantar surface of the hind paws, ipsilateral and contralateral to the surgical manipulation. […]

[1] = system: TDP-43 overexpressed flies; experiment: TDP-43 pupal lethality screen (Example 23); assay type: in vivo, Drosophila; conditions: larvae raised on 1 microMolar; DMSO control 51%
Method: Procedure: UAS TDP-43 male Drosophila flies were crossed with D42-Gal4 female virgins on fly food containing either DMSO or 1% Compound 118 in dimethyl sulfoxide (DMSO). For DMSO controls, the same volume of DMSO as the corresponding Compound 118 concentration was added. Bromophenol blue was added to a final concentration of around 0.02% to ensure homogeneity. Crosses were made on drug food with three female virgins and two males in each vial and were maintained at 25° C. unless noted. The parents were discarded after 5-7 days and then the vials were screened for adult progeny with straight wings from Day 14 to Day 25. All adults were screened for TDP-43 expression by visualizing the YFP tag. Total number of pupae was counted on Day 25. Percent survival was calculated using the formula (total number of straight-winged adults/total number of pupae)×100. All experiments were performed in triplicate. Read-outs include larval turning assay and pupil lethality screen.
Compound 118 (represented as AQU-118) caused a decrease in lethality from 51% (bottom left) to 39% (bottom right). In this screen the number of adult TDP-43 overexpressed flies that emerge from their pupae stage is compared to w1118 controls. Larvae were raised on either DMSO or Compound 118 at 1 microMolar. N=number of pupae counted. Alive=empty pupal cases, adults have emerged. […]

`[2H]C([2H])([2H])c1ccc(C#Cc2ccc(S(=O)(=O)N[C@H](Cc3c[nH]c4ccccc34)C(=O)O)s2)cc1` [Compound 118, (R)-3-(1H-Indol-3-yl)-2-[5-(4-trideuteromethyl-phenylethynyl)-thiophene-2-sulfonylamino]-propionic acid-(D3, 98%)] was tested, and the “mechanical allodynia (ipsilateral paw withdrawal threshold, von Frey)” value (SNL rats) was “reduce mechanical allodynia in a statistical manner; also recorded: statistically significant decrease in mechanical allodynia” and the “lethality (dead pupae)” value [1] was 39%.
